Like-named read-outs stand apart in the source and are kept apart here.
What was measured:
CWR22RV1 cells = test: Inhibition of proliferation of CWR22RV1 cells (CCK-8); type: cell-based, human; conditions: Homo sapiens, CWR22Rv1, 144 h, 6 days culture
Outline: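 Proliferation read-out was CCK-8 absorbance at 450 nm after 2.5 h, following 6-day culture with compound. Each well held 1500 CWR22RV1 cells; the 3-fold, 9-point series started at a final 10 μM in 0.1% DMSO. Dose-response-inhibition fit gave the IC50.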

LNCAP-AR = test: Inhibition of proliferation of LNCAP-AR cells; type: cell-based; conditions: Prostate cancer cell line LNCAP-AR; read-out: IC50 against LNCAP-AR
Protocol: (§1) 1) CWR22RV1 cells were subcultured in cell culture medium, and the cells in good growth condition were seeded in a 96-well plate, 80 μL for each well, and the cell number in each well was 1500. The plate was incubated overnight in a 37° C., 5% CO2 cell incubator. 2) The drug was prepared as 30 mM stock solution with dimethyl sulfoxide (DMSO). Prior to use, the stock solution was diluted 3 times with DMSO, and then further diluted as 3-fold gradient to obtain 9 concentration gradients. Then, each concentration of compound was diluted 200 times with the culture solution (ensuring that the DMSO concentration in the culture system was 0.1%), and two replicate wells were set for each concentration. 20 μL of diluted compound solution was added to the cell culture well (with final concentrations of 10 μM, 3.3 μM. 1.1 μM . . . ), and the plate was gently shaken to mix. In addition, 3 negative control wells containing only cells and 3 blank control wells containing only culture medium were included (6 wells were each added 20 μL DMSO diluted 200 times with culture medium). 2. Result detection: (1) After culturing for 6 days, 10 μL CCK-8 was added to each well, and the plate was continually cultured in a 37° C., 5% CO2 cell incubator for 2.5 h. (2) The absorbance (OD value) was detected at 450 nm using a multifunctional microplate reader. (3) The data were analyzed by Dose-response-inhibition equation in the software GraphPad Prism6, and the IC50 value was obtained.
(§2) Using the same method as Experimental example 2, CWR22RV1 cells were replaced with tumor cells in Table 3, and the IC50 (nM) of the compound according to the present invention against the activity of these tumor cells was tested and calculated.

LNCAP = test: Inhibition of proliferation of LNCAP cells; type: cell-based; conditions: Homo sapiens; Prostate cancer cell line LNCAP; read-out: IC50 against LNCAP
Protocol: as §1, §2

TALL-1 = test: Inhibition of proliferation of TALL-1 cells; type: cell-based; conditions: Homo sapiens; Leukemia cell line TALL-1; read-out: IC50 against TALL-1
Protocol: as §1, §2

MOLM-16 = test: Inhibition of proliferation of MOLM-16 cells; type: cell-based; conditions: MOLM16; Leukemia cell line MOLM-16; read-out: IC50 against MOLM-16
Protocol: as §1, §2

OCI-AML3 = test: Inhibition of proliferation of OCI-AML3 cells; type: cell-based; conditions: Homo sapiens, OCI-AML-3; Leukemia cell line OCI-AML3; read-out: IC50 against OCI-AML3
Protocol: as §1, §2

MT-2 = test: Inhibition of proliferation of MT-2 cells; type: cell-based; conditions: Homo sapiens, MT2; Leukemia cell line MT-2; read-out: IC50 against MT-2
Protocol: as §1, §2

Pfeiffer = test: Inhibition of proliferation of Pfeiffer cells; type: cell-based; conditions: Homo sapiens; Lymphoma cell line Pfeiffer; read-out: IC50 against Pfeiffer
Protocol: as §1, §2

MLMA = test: Inhibition of proliferation of MLMA cells; type: cell-based; conditions: Lymphoma cell line MLMA; read-out: IC50 against MLMA
Protocol: as §1, §2

KMS-12-PE = test: Inhibition of proliferation of KMS-12-PE cells; type: cell-based; conditions: Homo sapiens; Lymphoma cell line KMS-12-PE; read-out: IC50 against KMS-12-PE
Protocol: as §1, §2

MDA-MB-453 = test: Inhibition of proliferation of MDA-MB-453 cells; type: cell-based; conditions: Homo sapiens; Breast cancer cell line MDA-MB-453; read-out: IC50 against MDA-MB-453
Protocol: as §1, §2

HCC1428 = test: Inhibition of proliferation of HCC1428 cells; type: cell-based; conditions: Homo sapiens; Breast cancer cell line HCC1428; read-out: IC50 against HCC1428
Protocol: as §1, §2

KMS-11 = test: Inhibition of proliferation of KMS-11 cells; type: cell-based; conditions: Homo sapiens; Multiple myeloma cell line KMS-11; read-out: IC50 against KMS-11
Protocol: as §1, §2

NCI-H929 = test: Inhibition of proliferation of NCI-H929 cells; type: cell-based; conditions: Homo sapiens; Multiple myeloma cell line NCI-H929; read-out: IC50 against NCI-H929
Protocol: as §1, §2

OPM-2 = test: Inhibition of proliferation of OPM-2 cells; type: cell-based; conditions: Homo sapiens; Multiple myeloma cell line OPM-2; read-out: IC50 against OPM-2
Protocol: as §1, §2

MCF-7 cells = test: Compound in combination with CDK4/6 inhibitor palbociclib against proliferation of MCF-7 cells; type: cell-based; conditions: for IC50: Homo sapiens
Protocol: 1) CWR22RV1 cells were subcultured in cell culture medium, and the cells in good growth condition were seeded in a 96-well plate, 60 μL for each well, and the cell number in each well was 2000. The plate was incubated overnight in a 37° C., 5% CO2 cell incubator. 2) The drug was prepared as 10 mM stock solution with dimethyl sulfoxide (DMSO). Prior to use, the stock solution was diluted 3 times with DMSO, and then further diluted as 3-fold gradient to obtain 9 concentration gradients. Then, each concentration of compound was diluted 200 times with the culture solution (ensuring that the DMSO concentration in the culture system was 0.1%), and two replicate wells were set for each concentration. 20 μL of diluted compound solution was added to the cell culture well (with final concentrations of 10 μM, 3.3 μM, 1.1 μM . . . ). Palbociclib was diluted with culture medium to 500 nM, 150 nM, 50 nM, 5 nM, and 20 μL diluted compound solution was added to the corresponding cell culture wells (with a final concentration of 100 nM, 30 nM, 10 nM, 1 nM). The plate was gently shaken to mix. In addition, 3 negative control wells containing only cells and 3 blank control wells containing only culture medium were included (6 wells were each added 20 μL DMSO diluted 200 times with culture medium).
(1) After culturing for 6 days, 10 μL CCK-8 was added to each well, and the plate was continually cultured in a 37° C., 5% CO2 cell incubator for 2.5 h. (2) The absorbance (OD value) was detected at 450 nm using a multifunctional microplate reader. (3) The data were analyzed by Dose-response-inhibition equation in the software GraphPad Prism6, and the IC50 value was obtained.
Using the same method as Experimental example 4, CWR22RV1 cells were replaced with MCF-7 cells, and the IC50 values (nM) of the compound according to the present invention, palbociclib, as well as the combination of the compound according to the present invention and palbociclib against the proliferation of MCF-7 cells w ere tested and calculated.

[1] = read-out: IC50 against CWR22RV1 cells
[2] = read-out: IC50 against CWR22RV1 cells (text)

| Structure (SMILES) | IC50 (CWR22RV1 cells; [1]) | IC50 (CWR22RV1 cells; [2]) | IC50 (LNCAP-AR) | IC50 (LNCAP) | IC50 (TALL-1) | IC50 (MOLM-16) | IC50 (OCI-AML3) | IC50 (MT-2) | IC50 (Pfeiffer) | IC50 (MLMA) | IC50 (KMS-12-PE) | IC50 (MDA-MB-453) | IC50 (HCC1428) | IC50 (KMS-11) | IC50 (NCI-H929) | IC50 (OPM-2) | also measured |
| --- | --- | --- | --- | --- | --- | --- | --- | --- | --- | --- | --- | --- | --- | --- | --- | --- | --- |
| CNC(=O)Nc1cc2c(cc1F)[C@@]1(CC2)OC(=O)N(CC(=O)N2[C@@H](C)CC[C@H]2c2ccc(F)c(F)c2)C1=O [Example 389, 1-((R)-3′-(2-((2S,5S)-2-(3,4-difluorophenyl)-5-methylpyrrolidin-1-yl)-2-oxoethyl)-6-fluoro-2′,4′-dioxo-2,3-dihydrospiro[indene-1,5′-oxazolidine]-5-yl)-3-methylurea] | ≤ 500 nM | ≤ 500 nM | ≤ 500 nM | ≤ 500 nM | ≤ 500 nM | ≤ 500 nM | ≤ 500 nM | ≤ 500 nM | ≤ 500 nM | ≤ 500 nM | 500 to 2000 nM | ≤ 500 nM | ≤ 500 nM | ≤ 500 nM | ≤ 500 nM | ≤ 500 nM | – |
| CNC(=O)Nc1ccc2c(c1)CC[C@@]21OC(=O)N(CC(=O)N2[C@@H](C)CC[C@H]2c2ccc(F)c(F)c2)C1=O [Example 201] | ≤ 500 nM | ≤ 500 nM | ≤ 500 nM | ≤ 500 nM | ≤ 500 nM | ≤ 500 nM | ≤ 500 nM | 500 to 2000 nM | ≤ 500 nM | ≤ 500 nM | 500 to 2000 nM | ≤ 500 nM | ≤ 500 nM | ≤ 500 nM | ≤ 500 nM | ≤ 500 nM | – |
| CNC(=O)Nc1ccc2c(c1)CC[C@@]21OC(=O)N(CC(=O)N2C(C)CC[C@H]2c2cc(F)c(F)c(F)c2)C1=O (stereo in doubt) [Example 205, 1-((R)-3′-(2-((2S,5R)-2-(3,4,5-trifluorophenyl)-5-methylpyrrolidin-1-yl)-2-oxoethyl)-2′,4′-dioxo-2,3-dihydrospiro[indene-1,5′-oxazolidine]-5-yl)-3-methylurea] | ≤ 500 nM | ≤ 500 nM | ≤ 500 nM | ≤ 500 nM | ≤ 500 nM | ≤ 500 nM | ≤ 500 nM | 500 to 2000 nM | ≤ 500 nM | ≤ 500 nM | 500 to 2000 nM | ≤ 500 nM | ≤ 500 nM | ≤ 500 nM | ≤ 500 nM | ≤ 500 nM | IC50 (MCF-7 cells; MCF7, in combination with 10 nM palbociclib): 19 nM; IC50 (MCF-7 cells; MCF7, in combination with 30 nM palbociclib): 1.6 nM; IC50 (MCF-7 cells; MCF7, in combination with 100 nM palbociclib): 1.5 nM; IC50 (MCF-7 cells; MCF7, single agent): 81 nM; inhibitory activity on MCF-7 cells when combined with palbociclib, versus either agent alone (MCF-7 cells; combination with CDK4/6 inhibitor palbociclib): much higher |

From US20220087996A1, “Histone acetylase p300 inhibitor and use thereof” (HINOVA PHARMACEUTICALS INC., priority 2018, published 2022)
